Data set [1] has as its system Mycoplasma genitalium. As to the kind of experiment: Antibacterial activity against Mycoplasma genitalium G37 assessed as bacterial growth inhibition incubated for 7 days by microbroth dilution assay. It is filed as functional. To be noted: Mycoplasmoides genitalium, G37, 168 h; time 7 day. A general note: Dilution methods test growth across graded concentrations, often in twofold steps.

Data set [2] deals with Mycoplasma genitalium. As to the kind of experiment: Antibacterial activity against Mycoplasma genitalium G37 assessed as bacterial growth inhibition by qPCR analysis. Type of data set: functional, organism-based. To be noted: Mycoplasmoides genitalium. For orientation: In qPCR the cycle at which signal appears reflects the starting amount.
The test system of data set [3] is Mycoplasma genitalium. As to the kind of experiment: Antibacterial activity against Mycoplasma genitalium at >0.3 uM. It is filed as functional, organism-based. Conditions: Mycoplasmoides genitalium.
A short description of data set [4]: Selectivity index, ratio of IC50 for human HepG2 cells to IC50 for Mycoplasma genitalium G37. It is filed as toxicity. Conditions: read-out: Ratio IC50.
Data set [5] is described as follows: Metal chelating activity assessed as compound-Cobalt complex formation by UV-Vis spectrophotometric analysis.
Data set [6] concerns Mycoplasma genitalium. Kind of data set: Antibacterial activity against Mycoplasma genitalium Sea-1 assessed as bacterial growth inhibition by qPCR analysis. Conditions: Mycoplasmoides genitalium. It is filed as functional, organism-based.
Data set [7] relates to Mycoplasma genitalium. Kind of data set: Antibacterial activity against Mycoplasma genitalium assessed as bacterial growth inhibition in SP-4 broth medium supplemented with DPP at 0.08 to 0.64 uM measured after 2 hrs by absorbance based analysis. Type of data set: functional, organism-based. Conditions: Mycoplasmoides genitalium, dose 0.08-0.64 µM.
Data set [8] deals with Mycoplasma genitalium. Kind of data set: Antibacterial activity against Mycoplasma genitalium at 0.28 to 1.12 measured after >1 month. Type of data set: functional, organism-based. To be noted: Mycoplasmoides genitalium; time > 1.0 months.
Data set [9] in a line: Metal chelating activity assessed as compound-zinc complex formation by UV-Vis spectrophotometric analysis.
Data set [10] in a line: Metal chelating activity assessed as compound-calcium complex formation by UV-Vis spectrophotometric analysis.
Data set [11] deals with Mycoplasma genitalium. Kind of data set: Antibacterial activity against Mycoplasma genitalium Sea-2 assessed as bacterial growth inhibition incubated for 7 days by microbroth dilution assay. Type of data set: functional. To be noted: Mycoplasmoides genitalium, Sea-2, 168 h; time 7 day.
The test system of data set [12] is Mycoplasma genitalium. Kind of data set: Antibacterial activity against Mycoplasma genitalium assessed as bacterial growth inhibition in SP-4 broth medium supplemented with TPEN at 0.64 uM measured after 2 hrs by absorbance based analysis. Type of data set: functional, organism-based. Conditions: Mycoplasmoides genitalium.
The nature of data set [13]: Metal chelating activity assessed as compound-Fe3+ complex formation by UV-Vis spectrophotometric analysis.
Data set [14] is described as follows: Metal chelating activity assessed as compound-magnesium complex formation by UV-Vis spectrophotometric analysis.
Data set [15] relates to Mycoplasma genitalium. As to the kind of experiment: Antibacterial activity against Mycoplasma genitalium G37 assessed as bacterial growth inhibition at 1.16 uM incubated for 7 days by time-kill assay relative to control. Type of data set: functional, Mycoplasmoides genitalium. Details: scale not given: the % may be the effect or the level left. Conditions: time 7 day.
Data set [16] deals with Mycoplasma genitalium. Kind of data set: Antibacterial activity against Mycoplasma genitalium M2282 assessed as bacterial growth inhibition incubated for 7 days by microbroth dilution assay. Type of data set: functional. Conditions: Mycoplasmoides genitalium, M2282, 168 h; time 7 day.
The nature of data set [17]: Selectivity index, ratio of IC50 for African green monkey Vero cells to IC50 for Mycoplasma genitalium G37. It is filed as toxicity. Conditions: read-out: Ratio IC50.
A short description of data set [18]: Selectivity index, ratio of IC50 for human HeLa cells to IC50 for Mycoplasma genitalium G37. Conditions: read-out: Ratio IC50. It is filed as toxicity.
The subject of data set [19] is Mycoplasma genitalium. As to the kind of experiment: Potentiation of hydrogen peroxide sensitivity in Mycoplasma genitalium assessed as reduction in bactericidal concentration of hydrogen peroxide at 0.32 uM measured after 7 days by checkerboard technique (reference value: 7 mM). Type of data set: functional, Mycoplasmoides genitalium. To be noted: time 7 day.
For data set [20], the system named is Mycoplasma genitalium. Kind of data set: Antibacterial activity against Mycoplasma genitalium G37 assessed as bacterial growth inhibition at 0.29 to 0.58 uM incubated for 7 days by time-kill assay. Type of data set: functional, organism-based. Conditions: Mycoplasmoides genitalium, dose 0.29-0.58 µM, time 7.0 day.
The test system of data set [21] is Mycoplasma genitalium. As to the kind of experiment: Antibacterial activity against Mycoplasma genitalium Sea-2 assessed as bacterial growth inhibition by qPCR analysis. It is filed as functional, organism-based. To be noted: Mycoplasmoides genitalium.
Data set [22] concerns Mycoplasma genitalium. Kind of data set: Antibacterial activity against Mycoplasma genitalium assessed as bacterial growth inhibition in SP-4 broth medium supplemented with DPP and ferric chloride at 0.64 uM measured after 2 hrs by absorbance based analysis. It is filed as functional, organism-based. Conditions: Mycoplasmoides genitalium.
Data set [23] concerns Mycoplasma genitalium. Kind of data set: Antibacterial activity against Mycoplasma genitalium M2300 assessed as bacterial growth inhibition incubated for 7 days by microbroth dilution assay. Type of data set: functional. Conditions: Mycoplasmoides genitalium, M2300, 168 h; time 7 day.
A short description of data set [24]: Metal chelating activity assessed as compound-Nickel complex formation by UV-Vis spectrophotometric analysis.
The nature of data set [25]: Metal chelating activity assessed as compound-copper complex formation by UV-Vis spectrophotometric analysis.
Data set [26] concerns Mycoplasma genitalium. Kind of data set: Bacteriostatic activity against Mycoplasma genitalium G37 assessed as bacterial growth inhibition at 4 times MIC measured after 7 days by time-kill assay relative to control. Type of data set: functional, Mycoplasmoides genitalium. Details: scale not given: the % may be the effect or the level left. Conditions: time 7 day.
Data set [27] is described as follows: Metal chelating activity assessed as compound-manganese complex formation by UV-Vis spectrophotometric analysis.
The test system of data set [28] is Mycoplasma genitalium. As to the kind of experiment: Antibacterial activity against Mycoplasma genitalium Sea-1 assessed as bacterial growth inhibition incubated for 7 days by microbroth dilution assay. It is filed as functional. To be noted: Mycoplasmoides genitalium, Sea-1, 168 h; time 7 day.
The nature of data set [29]: Selectivity index, ratio of IC50 for human WIL-2N cells to IC50 for Mycoplasma genitalium G37. Type of data set: toxicity. To be noted: read-out: Ratio IC50.
In data set [30] the test system is Mycoplasma genitalium. As to the kind of experiment: Antibacterial activity against Mycoplasma genitalium assessed as bacterial growth inhibition in SP-4 broth medium supplemented with TPEN and zinc chloride at 0.64 uM measured after 2 hrs by absorbance based analysis. Type of data set: functional, organism-based. To be noted: Mycoplasmoides genitalium.

SMILES strings stand for the structures. Values after ≈ are worked out from the molar mass of the structure shown. Active and inactive are the calls of the source. No cut-off for these calls is given here. Some results are limits rather than exact numbers.

For orientation: MIC means the lowest concentration found to suppress growth. The IC50 is the concentration needed to halve the response being measured. In general, IC90 refers to the concentration needed for an effect of 90%.

For `C[C@@H]1C[C@H](C)[C@@H](c2c(O)cc[nH]c2=O)[C@H](C)[C@@](C)(O)C1` [DEOXYAKANTHOMYCIN], the MIC in the data set with Mycoplasma genitalium [1] is above 80 µM.
Same read-out and setting: to `COn1ccc(O)c([C@@H]2[C@@H](C)C[C@@H](C)C[C@](C)(O)[C@H]2C)c1=O` belongs above 80 µM.
The same measure, in the same setting: with `C[C@@H]1C[C@H](C)[C@H]2c3c(cc[nH]c3=O)O[C@H](C)[C@@]2(C)C1` the figure was above 80 µM.
For the compound `COn1ccc2c(c1=O)[C@@H]1[C@@H](C)C[C@@H](C)C[C@]1(C)[C@@H](C)O2`, the MIC in the data set with Mycoplasma genitalium [1] was above 80 µM.
On the same count and under the same terms, to `C=C[C@H]1C[C@@H](C)C[C@@H](C)[C@@H]1c1c(O)ccn(O)c1=O` belongs above 95 µM.
Turning to `C[C@@H]1C[C@H](C)[C@H]2c3c(ccn(O)c3=O)O[C@H](C)[C@@]2(C)C1`, the IC50 was 90 nM with Mycoplasma genitalium [2], 100 nM in the data set with Mycoplasma genitalium [6] and 60 nM with Mycoplasma genitalium [21]. Moreover, the IC90 with Mycoplasma genitalium [2] amounted to 120 nM; with Mycoplasma genitalium [6], 120 nM; in the data set on Mycoplasma genitalium [21] it was 110 nM. Moreover, the result (in the data set with Mycoplasma genitalium [3]; in [5]; with Mycoplasma genitalium [7]; in the data set on Mycoplasma genitalium [8]; in data set [9]; in data set [10]) was inactive. Besides, the result (in the data set on Mycoplasma genitalium [12]; in data set [14]; in data set [24]; in data set [25]; in data set [27]) was inactive. Besides, the selectivity ratio in [4], in [17], in data set [18] and in [29] was above 32 each time. Moreover, the MIC was found to be 0.32 µM (≈ 0.0888 µg/mL) with Mycoplasma genitalium [11]; 0.32 µM (≈ 0.0888 µg/mL) with Mycoplasma genitalium [1]; 0.16 µM (≈ 0.0444 µg/mL) in the data set with Mycoplasma genitalium [16]; 0.16 µM (≈ 0.0444 µg/mL) with Mycoplasma genitalium [23]; 0.16 µM (≈ 0.0444 µg/mL) in the data set on Mycoplasma genitalium [28]. Moreover, the outcome (in data set [13]; in the data set with Mycoplasma genitalium [20]; in the data set on Mycoplasma genitalium [22]; with Mycoplasma genitalium [30]) was Active. Further, the figures for the Activity with Mycoplasma genitalium [15], with Mycoplasma genitalium [19] and in the data set on Mycoplasma genitalium [26] were 84.2%, 1.8 mM and above 99.9%, respectively.
